Test system: 633275-114-R-J1-PDC complex spheroids, viability
Assay: Anticancer human tumor 633275-114-R-J1-PDC patient-derived endometrial adenocarcinoma cell line growth inhibition [GQUAD]
Details: for IC50: curve of first compound; for viability, T/C: stronger effect = lower value
From the text: DNA G-quadruplex Stabilizer Agents in Combinations in Complex Spheroids
A high-throughput screen of multi-cell type tumor spheroids was designed to identify active combinations of DNA G-quadruplex stabilizer agents and targeted small molecules. Complex spheroids include a stromal component modeled by human endothelial cells (HUVEC) and fibroblasts modeled by human mesenchymal stem cells (MSCs). The concentration ranges selected for each drug and investigational agent were based upon clinically achievable concentrations if the clinical Cmax of the agent was known.
Compounds. The drugs and investigational agents: pidnarulex (CX-5461; NSC782164), APTO-253 (NSC789042), BRACO-19 (NSC847499), peposertib (NSC802822), ceralasertib (NSC780249), elimusertib (NSC800525), camonsertib (NSC841442), AZD-1390 (NSC803789), olaparib (NSC753686), talazoparib (NSC767125), ART-558 (NSC835418), sotorasib (NSC818433), MRTX-1133 (NSC836407), SN-38 (NSC673596), topotecan (NSC609699), etoposide (NSC141540), doxorubicin (NSC123127), gemcitabine (NSC613327), 5-fluorouracil (NSC19893), paclitaxel (NSC125973), vemurafenib (NSC761431), panobinostat (NSC761190), R-306465 (JNJ-16241199; NSC773264), adavosertib (NSC754352), TP-3654 (NSC805149), carboplatin (NSC241240), KSQ-4279 (NSC840948), and staurosporine (NSC755774) were obtained from the National Cancer Institute (NCI) Developmental Therapeutics Program Chemical Repository (34). The FDA-approved anticancer drug set is available from the NCI Developmental Therapeutics Program. […] The stock solutions were prepared in dimethyl sulfoxide (DMSO, Sigma-Aldrich, St. Louis, MO, cat. D2650) at 800-fold the tested concentration and stored at -70 degrees C prior to their use. All drugs and investigational agents were tested over a range starting from a high concentration at or near the clinical Cmax and decreasing in half-log increments. If the clinical Cmax for an agent had not been determined, the highest concentration tested was 10 microM.
2.3 Cell Culture. All cells were maintained in an incubator at 37 degrees C and 5% CO2 with 95% humidity. The PDC lines were cultured according to standard operating procedures established by the NCI PDMR. All PDCs were thawed and cultured in Matrigel-coated flasks prepared with a working solution of 1X Ham's F-12 nutrient mix, without supplementation (Invitrogen, cat. 11765054), 100 U/mL penicillin-streptomycin (Invitrogen, cat. 15140122), and 2.5% Matrigel (Corning Inc., cat. 354248) for the first three passages. The 857933-349-R-J2-PDC line was cultured in 6C/Colon 1B media, which includes advanced DMEM/F-12 (Thermo Fisher Scientific, cat. 12634028), 10 mM HEPES (Thermo Fisher Scientific, cat. 15630080), 1X GlutaMAX supplement (Thermo Fisher Scientific, cat. 35050061), 0.1 mg/mL primocin (InvivoGen, cat. ant-pm-2), 10% defined fetal bovine serum, heat inactivated (HyClone Laboratories Inc., cat. SH30070.03HI), 50% L-WRN conditioned media (ATCC, cat. CRL-3276), 1.25 mM N-Acetyl-L-cysteine (Sigma-Aldrich, cat. A9165), 10 mM nicotinamide (Sigma-Aldrich, cat. N0636), 1X B-27 supplement (Thermo Fisher Scientific, cat. 17504044), 1X N-2 supplement (Thermo Fisher Scientific, cat. 17502048), 10 microM Y-27632 dihydrochloride (Tocris Bioscience, cat. 1254), and 50 ng/mL human EGF recombinant protein (Thermo Fisher Scientific, cat. PHG0311). The 485176-168-R4-J1-PDC line was cultured in Panc media, which includes all 6C/Colon 1B media components plus 100 ng/mL human FGF-10 (Thermo Fisher Scientific, cat. 100-26), 500 nM SB-431542 (Selleckchem, cat. S1067), and gastrin (Tocris, cat. 3006).
[…]

[1] = second compound 0.0316 µM, first compound 0.0316 µM
[2] = second compound 0.0316 µM, first compound 0.1 µM
[3] = second compound 0.0316 µM, first compound 0.316 µM
[4] = second compound 0.0316 µM, first compound 1 µM
[5] = second compound 0.0316 µM, first compound 3.16 µM
[6] = second compound 0.0316 µM, first compound 10 µM
[7] = second compound 0.1 µM, first compound 0.0316 µM
[8] = second compound 0.1 µM, first compound 0.1 µM
[9] = second compound 0.1 µM, first compound 0.316 µM
[10] = second compound 0.1 µM, first compound 1 µM
[11] = second compound 0.1 µM, first compound 3.16 µM
[12] = second compound 0.1 µM, first compound 10 µM
[13] = second compound 0.316 µM, first compound 0.0316 µM
[14] = second compound 0.316 µM, first compound 0.1 µM
[15] = second compound 0.316 µM, first compound 0.316 µM
[16] = second compound 0.316 µM, first compound 1 µM
[17] = second compound 0.316 µM, first compound 3.16 µM
[18] = second compound 0.316 µM, first compound 10 µM
[19] = second compound 1 µM, first compound 0.0316 µM
[20] = second compound 1 µM, first compound 0.1 µM
[21] = second compound 1 µM, first compound 0.316 µM
[22] = second compound 1 µM, first compound 1 µM
[23] = second compound 1 µM, first compound 3.16 µM
[24] = second compound 1 µM, first compound 10 µM
[25] = second compound 3.16 µM, first compound 0.0316 µM
[26] = second compound 3.16 µM, first compound 0.1 µM
[27] = second compound 3.16 µM, first compound 0.316 µM
[28] = second compound 3.16 µM, first compound 1 µM
[29] = second compound 3.16 µM, first compound 3.16 µM
[30] = second compound 3.16 µM, first compound 10 µM
[31] = second compound 10 µM, first compound 0.0316 µM
[32] = second compound 10 µM, first compound 0.1 µM
[33] = second compound 10 µM, first compound 0.316 µM
[34] = second compound 10 µM, first compound 1 µM
[35] = second compound 10 µM, first compound 3.16 µM
[36] = second compound 10 µM, first compound 10 µM
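Note: spheroids exposed to the agents for seven days.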
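Throughout, for viability, T/C: percent of DMSO vehicle control viability which is 100%.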

Question: What does the source list for `C=CCn1c(=O)c2cnc(Nc3ccc(N4CCN(C)CC4)cc3)nc2n1-c1cccc(C(C)(C)O)n1` + CN(C)c1ccc(Nc2c3ccc(NC(=O)CCN4CCCC4)cc3nc3cc(NC(=O)CCN4CCCC4)ccc23)cc1?
Answer: IC50 (second compound 0.0316 µM): 582 nM; IC50 (second compound 0.1 µM): 692 nM; IC50 (second compound 0.316 µM): 586 nM; IC50 (second compound 1 µM): 641 nM; IC50 (second compound 3.16 µM): 390 nM; IC50 (second compound 10 µM): < 31.6 nM; viability, T/C [1]: 103%; viability, T/C [2]: 84.3%; viability, T/C [3]: 69.8%; viability, T/C [4]: 33.9%; viability, T/C [5]: 19.5%; viability, T/C [6]: 14.8%; viability, T/C [7]: 106%; viability, T/C [8]: 92.5%; viability, T/C [9]: 82.1%; viability, T/C [10]: 34.2%; viability, T/C [11]: 20.8%; viability, T/C [12]: 14.1%; viability, T/C [13]: 105%; viability, T/C [14]: 97%; viability, T/C [15]: 63.8%; viability, T/C [16]: 37.6%; viability, T/C [17]: 20.6%; viability, T/C [18]: 15.6%; viability, T/C [19]: 93.4%; viability, T/C [20]: 85%; viability, T/C [21]: 71%; viability, T/C [22]: 36.9%; viability, T/C [23]: 19.8%; viability, T/C [24]: 15.7%; viability, T/C [25]: 87.2%; viability, T/C [26]: 66.8%; viability, T/C [27]: 55.8%; viability, T/C [28]: 34.8%; viability, T/C [29]: 29.4%; viability, T/C [30]: 16.6%; viability, T/C [31]: 32.2%; viability, T/C [32]: 23.9%; viability, T/C [33]: 22.2%; viability, T/C [34]: 16.9%; viability, T/C [35]: 14.9%; viability, T/C [36]: 7.51%

Question: Which IC50 (second compound 0.0316 µM) does the source give for `COc1cccc2c1C(=O)c1c(O)c3c(c(O)c1C2=O)CC(O)(C(=O)CO)CC3OC1CC(N)C(O)C(C)O1` (centres undefined) + CN(C)c1ccc(Nc2c3ccc(NC(=O)CCN4CCCC4)cc3nc3cc(NC(=O)CCN4CCCC4)ccc23)cc1 here?
Answer: 91.8 nM

Question: And the IC50 (second compound 0.1 µM)?
Answer: 77.9 nM

Question: What about the IC50 (second compound 0.316 µM) of the same compound?
Answer: 73.2 nM

Question: And the IC50 (second compound 1 µM)?
Answer: 65.5 nM

Question: And the IC50 (second compound 3.16 µM)?
Answer: 47.1 nM

Question: And the IC50 (second compound 10 µM)?
Answer: < 31.6 nM

Question: What about the viability, T/C [1] of the same compound?
Answer: 62.9%

Question: And the viability, T/C [2]?
Answer: 48.1%

Question: What about the viability, T/C [3] of the same compound?
Answer: 32%

Question: And the viability, T/C [4]?
Answer: 20.6%

Question: And the viability, T/C [5]?
Answer: 1.62%

Question: What about the viability, T/C [6] of the same compound?
Answer: 2.01%

Question: And the viability, T/C [7]?
Answer: 62.7%

Question: And the viability, T/C [8]?
Answer: 45%

Question: And the viability, T/C [9]?
Answer: 31%

Question: And the viability, T/C [10]?
Answer: 18.3%

Question: And the viability, T/C [11]?
Answer: 1.63%

Question: What about the viability, T/C [12] of the same compound?
Answer: 2.02%

Question: And the viability, T/C [13]?
Answer: 63.6%

Question: And the viability, T/C [14]?
Answer: 43.5%

Question: And the viability, T/C [15]?
Answer: 30.1%

Question: What about the viability, T/C [16] of the same compound?
Answer: 18.9%

Question: What about the viability, T/C [17] of the same compound?
Answer: 2.31%

Question: And the viability, T/C [18]?
Answer: 1.97%

Question: What about the viability, T/C [19] of the same compound?
Answer: 59.1%

Question: What about the viability, T/C [20] of the same compound?
Answer: 42%

Question: And the viability, T/C [21]?
Answer: 33.6%

Question: And the viability, T/C [22]?
Answer: 15.2%

Question: What about the viability, T/C [23] of the same compound?
Answer: 3.04%

Question: What about the viability, T/C [24] of the same compound?
Answer: 1.66%

Question: And the viability, T/C [25]?
Answer: 56.9%

Question: And the viability, T/C [26]?
Answer: 35.7%

Question: What about the viability, T/C [27] of the same compound?
Answer: 29.4%

Question: And the viability, T/C [28]?
Answer: 16.1%

Question: What about the viability, T/C [29] of the same compound?
Answer: 2.59%

Question: What about the viability, T/C [30] of the same compound?
Answer: 1.1%

Question: And the viability, T/C [31]?
Answer: 25.3%

Question: And the viability, T/C [32]?
Answer: 17.3%

Question: And the viability, T/C [33]?
Answer: 10%

Question: And the viability, T/C [34]?
Answer: 7.22%

Question: And the viability, T/C [35]?
Answer: 0.49%

Question: And the viability, T/C [36]?
Answer: 0.61%

Source: PubChem BioAssay AID2060505 (Molecular Pharmacology Branch, DTP, NCI, 2025)
